# Laboratory results: publication PMC9901164, “Cloning and characterization of nitrate reductase gene in kelp Saccharina japonica (Laminariales, Phaeophyta)” (BMC Plant Biology, 2023)
# T1: rSjNR-S (Saccharina japonica, UniProt A0A977LKQ3)
# T1 construct: E. coli BL21(DE3) pCold-SUMO-10His, Ni-NTA, SUMO tag cut off
# T1 sequence (A0A977LKQ3 1-705): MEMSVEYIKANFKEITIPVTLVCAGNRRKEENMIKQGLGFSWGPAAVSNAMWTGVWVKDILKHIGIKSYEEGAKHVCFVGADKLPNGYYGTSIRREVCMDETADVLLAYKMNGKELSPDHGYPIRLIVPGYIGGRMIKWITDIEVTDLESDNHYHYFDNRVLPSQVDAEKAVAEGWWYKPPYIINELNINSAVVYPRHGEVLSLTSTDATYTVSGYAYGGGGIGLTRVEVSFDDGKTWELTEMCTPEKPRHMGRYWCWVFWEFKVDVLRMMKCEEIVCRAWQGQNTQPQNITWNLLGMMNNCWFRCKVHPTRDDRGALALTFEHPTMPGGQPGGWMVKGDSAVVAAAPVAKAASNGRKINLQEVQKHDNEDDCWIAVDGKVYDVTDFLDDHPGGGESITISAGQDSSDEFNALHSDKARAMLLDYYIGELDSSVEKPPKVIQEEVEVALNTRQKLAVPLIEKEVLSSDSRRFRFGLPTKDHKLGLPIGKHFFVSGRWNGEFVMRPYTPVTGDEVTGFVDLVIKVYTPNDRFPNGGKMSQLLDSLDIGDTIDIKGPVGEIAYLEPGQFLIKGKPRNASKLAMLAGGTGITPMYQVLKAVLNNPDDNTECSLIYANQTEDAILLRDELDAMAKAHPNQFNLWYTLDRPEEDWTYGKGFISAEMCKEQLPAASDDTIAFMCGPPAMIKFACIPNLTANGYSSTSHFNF
# B1: rSjNR-L (Saccharina japonica) (protein)
# chain: MASGIQSCKPEKADASLVNIKGHDYYKDTFVPPAEDVTEIDPRDKGTPDDWVPRHPELVRLTGRHPFNVEPPVWRIKDHGFISPNSLHYVRNHGAVPRIVQGDSHKVRFGGAIDKPMEMSVEYIKANFKEITIPVTLVCAGNRRKEENMIKQGLGFSWGPAAVSNAMWTGVWVKDILKHIGIKSYEEGAKHVCFVGADKLPNGYYGTSIRREVCMDETADVLLAYKMNGKELSPDHGYPIRLIVPGYIGGRMIKWITDIEVTDLESDNHYHYFDNRVLPSQVDAEKAVAEGWWYKPPYIINELNINSAVVYPRHGEVLSLTSTDATYTVSGYAYGGGGIGLTRVEVSFDDGKTWELTEMCTPEKPRHMGRYWCWVFWEFKVDVLRMMKCEEIVCRAWQGQNTQPQNITWNLLGMMNNCWFRCKVHPTRDDRGALALTFEHPTMPGGQPGGWMVKGDSAVVAAAPVAKAASNGRKINLQEVQKHDNEDDCWIAVDGKVYDVTDFLDDHPGGGESITISAGQDSSDEFNALHSDKARAMLLDYYIGELDSSVEKPPKVIQEEVEVALNTRQKLAVPLIEKEVLSSDSRRFRFGLPTKDHKLGLPIGKHFFVSGRWNGEFVMRPYTPVTGDEVTGFVDLVIKVYTPNDRFPNGGKMSQLLDSLDIGDTIDIKGPVGEIAYLEPGQFLIKGKPRNASKLAMLAGGTGITPMYQVLKAVLNNPDDNTECSLIYANQTEDAILLRDELDAMAKAHPNQFNLWYTLDRPEEDWTYGKGFISAEMCKEQLPAASDDTIAFMCGPPAMIKFACIPNLTANGYSSTSHFNF
# notes: E. coli BL21(DE3) pCold-SUMO-10His, Ni-NTA, SUMO tag cut off
# How the values were obtained:
# rSjNR-S = target: T1, rSjNR-S; experiment: Griess colorimetric nitrite assay, single concentration; assay type: biochemical; conditions: 5 mM KNO3, 0.2 mM NADH, 100 mM HEPES pH 7.6, 10 μM FAD, 10 μM sodium molybdate, 10 mM MgCl2, 5 mM DTT, 24 °C
# [1] = substrate: O=[N+]([O-])O; experiment: Griess colorimetric nitrite assay, Michaelis-Menten nonlinear regression; assay type: biochemical, Saccharina japonica; conditions: 0.2 mM NADH, 100 mM HEPES pH 7.6, 10 μM FAD, 10 μM sodium molybdate, 10 mM MgCl2, 5 mM DTT, 24 °C, KNO3 0-20 mM, apparent
molecule,measurement,setting,value
O=[N+]([O-])O [KNO3],"Griess colorimetric nitrite assay, single concentration",rSjNR-S,both rSjNR-L and rSjNR-S showed NR activity in vitro
NC(=O)C1=CN([C@@H]2O[C@H](COP(=O)(O)OP(=O)(O)OC[C@H]3O[C@@H](n4cnc5c(N)ncnc54)[C@H](O)[C@@H]3O)[C@@H](O)[C@H]2O)C=CC1 [NADH],"Griess colorimetric nitrite assay, single concentration",rSjNR-S; electron donor,the activity of rSjNR-S was lower than that of rSjNR-L
B1,Km,[1],0.42 (± 0.059) mM
